The results in this text go back to ChEMBL document CHEMBL5137038, “Novel quinoline-based derivatives: A new class of PDE4B inhibitors for adjuvant-induced arthritis” (Eur J Med Chem, 2022).

Each structure is given as a SMILES string.

As usually defined, the inhibition is the relative decrease from the control value, in per cent. Lower therefore signals a weak effect. The IC50 is the concentration that gives 50% inhibition.

The subject of experiment [1] is RAW264.7. In words: Inhibition of LPS induced NO production in mouse RAW264.7 cells at 30 uM preincubated for 1 hr followed by LPS addition and measured after 24 hrs by Griess reagent based assay relative to control. The format is functional. Conditions: time 25 hrs. For orientation: Nitrite, measured by Griess reagent, commonly stands in for NO production.
Experiment [2] addresses 3',5'-cyclic-AMP phosphodiesterase 4B (Homo sapiens, UniProt Q07343). As to the kind of experiment: Inhibition of PDE4B (unknown origin) using […] as substrate incubated for 1 hr by PDElight HTS cAMP phosphodiesterase assay.
Experiment [3] deals with RAW264.7. As to the kind of experiment: Inhibition of LPS induced NO production in mouse RAW264.7 cells preincubated for 1 hr followed by LPS addition and measured after 24 hrs by Griess reagent based assay. The class given is functional, cell-based.

Sequence of 3',5'-cyclic-AMP phosphodiesterase 4B (Q07343 whole entry): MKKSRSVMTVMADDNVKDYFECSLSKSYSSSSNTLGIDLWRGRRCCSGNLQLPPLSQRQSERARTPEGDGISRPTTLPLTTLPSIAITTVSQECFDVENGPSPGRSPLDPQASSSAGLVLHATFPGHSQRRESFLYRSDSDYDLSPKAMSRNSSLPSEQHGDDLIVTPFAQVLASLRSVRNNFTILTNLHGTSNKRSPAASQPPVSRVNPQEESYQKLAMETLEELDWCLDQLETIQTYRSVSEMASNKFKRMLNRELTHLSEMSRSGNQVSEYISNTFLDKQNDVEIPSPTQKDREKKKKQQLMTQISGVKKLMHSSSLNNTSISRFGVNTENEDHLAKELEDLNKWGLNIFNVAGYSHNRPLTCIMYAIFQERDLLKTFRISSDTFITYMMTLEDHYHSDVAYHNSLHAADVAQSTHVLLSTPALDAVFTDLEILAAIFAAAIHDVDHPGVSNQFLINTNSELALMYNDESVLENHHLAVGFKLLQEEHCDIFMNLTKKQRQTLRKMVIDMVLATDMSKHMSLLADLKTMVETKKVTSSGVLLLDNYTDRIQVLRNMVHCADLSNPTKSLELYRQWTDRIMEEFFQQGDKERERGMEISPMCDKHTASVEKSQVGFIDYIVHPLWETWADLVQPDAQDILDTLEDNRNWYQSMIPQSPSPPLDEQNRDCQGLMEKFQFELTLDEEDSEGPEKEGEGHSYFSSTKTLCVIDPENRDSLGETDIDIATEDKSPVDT

`O=S(=O)(Nc1cccc(NS(=O)(=O)c2cccc3cccnc23)c1)c1ccc(Br)cc1` yielded an inhibition at 30 µM in the experiment on RAW264.7 [1] of 20.2%.

The compound `O=S(=O)(Nc1cccc(NS(=O)(=O)c2cccc3cccnc23)c1)c1ccc(C(F)(F)F)cc1` displayed an inhibition at 30 µM in the experiment with RAW264.7 [1] of 40.6%.

As to `O=S(=O)(Nc1cccc(NS(=O)(=O)c2cccc3cccnc23)c1)c1cccc(C(F)(F)F)c1`, the inhibition at 30 µM in the experiment with RAW264.7 [1] was 23.9%.

Take `O=S(=O)(Nc1cccc(NS(=O)(=O)c2cccc3cccnc23)c1)c1ccc(F)cc1`: 30 µM produced 19% inhibition with RAW264.7 [1].

In the experiment on RAW264.7 [1], `CC(C)c1ccc(S(=O)(=O)Nc2cccc(NS(=O)(=O)c3cccc4cccnc34)c2)cc1` displayed an inhibition at 30 µM of 41.5%.

For the compound `O=S(=O)(Nc1cccc(NS(=O)(=O)c2cccc3cccnc23)c1)c1ccc(Cl)cc1`, the inhibition at 30 µM with RAW264.7 [1] amounted to 6.7%.

In the experiment with RAW264.7 [1], `CC(C)(C)c1ccc(S(=O)(=O)Nc2cccc(NS(=O)(=O)c3cccc4cccnc34)c2)cc1` showed an inhibition at 30 µM of 39.3%.

In turn, `Cc1ccc(S(=O)(=O)Nc2cccc(NS(=O)(=O)c3cccc4cccnc34)c2)cc1` came in with an inhibition at 30 µM in the experiment with RAW264.7 [1] of 11.4%.

The compound `O=S(=O)(Nc1cccc(NS(=O)(=O)c2cccc3cccnc23)c1)c1ccccc1C(F)(F)F` gave an inhibition at 30 µM in the experiment with RAW264.7 [1] of 22%.

For `CC(C)c1cc(C(C)C)c(S(=O)(=O)Nc2cccc(NS(=O)(=O)c3cccc4cccnc34)c2)c(C(C)C)c1`, the IC50 in experiment [2] amounted to 0.94 µM.

Turning to `O=S(=O)(Nc1cccc(NS(=O)(=O)c2cccc3cccnc23)c1)c1cccc(Br)c1`, the inhibition at 30 µM in the experiment on RAW264.7 [1] is 31.1%.

`O=S(=O)(Nc1cccc(NS(=O)(=O)c2cccc3cccnc23)c1)c1c(F)cccc1F` displayed an inhibition at 30 µM in the experiment on RAW264.7 [1] of 23.6%.

In the experiment on RAW264.7 [1], `O=S(=O)(Nc1cccc(NS(=O)(=O)c2cccc3cccnc23)c1)c1ccccc1OC(F)(F)F` came in with an inhibition at 30 µM of 13.2%.

On to `O=[N+]([O-])c1cccc(S(=O)(=O)Nc2cccc(NS(=O)(=O)c3cccc4cccnc34)c2)c1`, for which, in the experiment on RAW264.7 [1], testing at 30 µM gave an inhibition of 28%.

Regarding `O=S(=O)(Nc1cccc(NS(=O)(=O)c2cccc3cccnc23)c1)c1ccccc1F`, testing at 30 µM in the experiment on RAW264.7 [1] gave an inhibition of 30.2%.

Regarding `O=S(=O)(Nc1cccc(NS(=O)(=O)c2cccc3cccnc23)c1)c1cccc(F)c1`, in the experiment with RAW264.7 [1], the inhibition at 30 µM was determined as 17.8%.

Take `COc1ccc(S(=O)(=O)Nc2cccc(NS(=O)(=O)c3cccc4cccnc34)c2)c(OC)c1`: in the experiment with RAW264.7 [1], the inhibition at 30 µM is 12.8%.

In the experiment with RAW264.7 [1], `O=S(=O)(Nc1cccc(NS(=O)(=O)c2cccc3cccnc23)c1)c1ccc(I)cc1` gave an inhibition at 30 µM of 39.5%.

In the experiment with RAW264.7 [1], `O=S(=O)(Nc1cccc(NS(=O)(=O)c2cccc3cccnc23)c1)c1ccccc1Cl` registered an inhibition at 30 µM of 12.1%.

The compound `O=S(=O)(Nc1cccc(NS(=O)(=O)c2cccc3cccnc23)c1)c1cc(Cl)cc(Cl)c1` showed an inhibition at 30 µM in the experiment on RAW264.7 [1] of 29%.

In the experiment with RAW264.7 [1], `O=S(=O)(Nc1cccc(NS(=O)(=O)c2cccc3cccnc23)c1)c1ccc(OC(F)(F)F)cc1` came in with an inhibition at 30 µM of 31.6%.

`O=S(=O)(Nc1cccc(NS(=O)(=O)c2cccc3cccnc23)c1)c1ccccc1` returned an inhibition at 30 µM in the experiment on RAW264.7 [1] of 23.8%.

As for `COc1ccc(Br)cc1S(=O)(=O)Nc1cccc(NS(=O)(=O)c2cccc3cccnc23)c1`, the inhibition at 30 µM in the experiment with RAW264.7 [1] came out at 16.3%.

`COc1ccc(S(=O)(=O)Nc2cccc(NS(=O)(=O)c3cccc4cccnc34)c2)cc1OC`: in the experiment on RAW264.7 [1], the inhibition at 30 µM was 32.3%.

`O=S(=O)(Nc1cccc(NS(=O)(=O)c2cccc3cccnc23)c1)c1ccccc1Br` returned an inhibition at 30 µM with RAW264.7 [1] of 23.6%.

`CC(=O)Nc1ccc(S(=O)(=O)Nc2cccc(NS(=O)(=O)c3cccc4cccnc34)c2)cc1` displayed an inhibition at 30 µM in the experiment on RAW264.7 [1] of 7.74%.

In the experiment with RAW264.7 [1], `N#Cc1ccc(S(=O)(=O)Nc2cccc(NS(=O)(=O)c3cccc4cccnc34)c2)cc1` yielded an inhibition at 30 µM of 25.2%.

`O=S(=O)(Nc1cccc(NS(=O)(=O)c2cccc3cccnc23)c1)c1c(Cl)cccc1Cl` yielded an inhibition at 30 µM in the experiment on RAW264.7 [1] of 24.7%.

Turning to `COc1ccc2c(c1)c(CC(=O)O)c(C)n2C(=O)c1ccc(Cl)cc1` [INDOMETHACIN], the inhibition at 30 µM in the experiment with RAW264.7 [1] is 42.5%. Besides, half-maximal inhibition in the experiment with RAW264.7 [3] (IC50) required 34.3 µM.
